In patent publication US20200237742A1, “Serdexmethylphenidate Conjugates, Compositions And Methods Of Use Thereof” (priority 2018, published 2020):
Counter-ions that a name gives are not always drawn.

Test system: healthy, nondependent, recreational stimulant users with intranasal insufflation experience
Test: Intranasal study, treatment-emergent adverse events (Table 54)
Protocol: The study consisted of a Screening Period, an in-clinic Drug Discrimination Phase, a Treatment Phase, and a Follow-Up Visit.
All subjects were required to fast for at least 8 hours prior to each dose of study drug until approximately 4 hours after each dose. Abuse potential measures and pharmacokinetic samples were collected at different times after the administration of study drug. Subjects who successfully completed the Drug Discrimination Phase and who qualified for the Treatment Phase remained as inpatients to enter the Treatment Phase.

[1] = intranasal, d-MPH HCl 40 mg, SDX Cl 80 mg, N = 46 each

In the case of `COC(=O)[C@H](c1ccccc1)[C@H]1CCCCN1` [d-methylphenidate hydrochloride, d-threo-methylphenidate hydrochloride], the “typical stimulant-related adverse events (euphoric mood, hypervigilance, cardiac palpitations and tachycardia)” value (intranasal d-MPH HCl compared to intranasal SDX Cl) is reported as “occurred more often”, the “Abdominal distension, subjects with event” value [1] is reported as 0 n (%) and the “Abdominal pain, number of occurrences” value [1] is reported as 1 E. For the same compound, the “Abdominal pain, subjects with event” value [1] was 1 (2.2%) n (%), the “Agitation, subjects with event” value [1] was 0 n (%) and the “Anxiety, number of occurrences” value [1] was 2 E. For the same compound, the “Anxiety, subjects with event” value [1] was 2 (4.3%) n (%), the “Any TEAE, number of occurrences” value [1] was 148 E and the “Any TEAE, subjects with event” value [1] was 46 (100.0%) n (%). For the same compound, the “Arthralgia, subjects with event” value [1] was 0 n (%), the “Asthenia, number of occurrences” value [1] was 1 E and the “Asthenia, subjects with event” value [1] was 1 (2.2%) n (%). The “Back pain, number of occurrences” value [1] was 1 E, the “Back pain, subjects with event” value [1] was 1 (2.2%) n (%) and the “Blood pressure diastolic increased, number of occurrences” value [1] was 1 E. The “Blood pressure diastolic increased, subjects with event” value [1] was 1 (2.2%) n (%), the “Bruxism, number of occurrences” value [1] was 2 E and the “Bruxism, subjects with event” value [1] was 2 (4.3%) n (%). The “Cardiac disorders, number of occurrences” value [1] was 29 E, the “Cardiac disorders, subjects with event” value [1] was 19 (41.3%) n (%) and the “Catheter site haematoma, subjects with event” value [1] was 0 n (%). For the same compound, the “Catheter site swelling, subjects with event” value [1] was 0 n (%), the “Change in sustained attention, number of occurrences” value [1] was 1 E and the “Change in sustained attention, subjects with event” value [1] was 1 (2.2%) n (%). For the same compound, the “Chest discomfort, number of occurrences” value [1] was 1 E, the “Chest discomfort, subjects with event” value [1] was 1 (2.2%) n (%) and the “Chest pain, subjects with event” value [1] was 0 n (%). For the same compound, the “Claustrophobia, subjects with event” value [1] was 0 n (%), the “Cough, subjects with event” value [1] was 0 n (%) and the “Decreased appetite, number of occurrences” value [1] was 3 E. The “Decreased appetite, subjects with event” value [1] was 3 (6.5%) n (%), the “Defaecation urgency, number of occurrences” value [1] was 1 E and the “Defaecation urgency, subjects with event” value [1] was 1 (2.2%) n (%). For the same compound, the “Diarrhoea, number of occurrences” value [1] was 1 E, the “Diarrhoea, subjects with event” value [1] was 1 (2.2%) n (%) and the “Disturbance in attention, number of occurrences” value [1] was 1 E. The “Disturbance in attention, subjects with event” value [1] was 1 (2.2%) n (%), the “Dizziness, subjects with event” value [1] was 0 n (%) and the “Dry mouth, number of occurrences” value [1] was 6 E. For the same compound, the “Dry mouth, subjects with event” value [1] was 6 (13.0%) n (%), the “Dry throat, number of occurrences” value [1] was 3 E and the “Dry throat, subjects with event” value [1] was 3 (6.5%) n (%). The “Dysgeusia, subjects with event” value [1] was 0 n (%), the “Dysmenorrhoea (menstrual cramps), number of occurrences” value [1] was 1 E and the “Dysmenorrhoea (menstrual cramps), subjects with event” value [1] was 1 (2.2%) n (%). For the same compound, the “Dyspepsia, subjects with event” value [1] was 0 n (%), the “Ecchymosis (skin discoloration), subjects with event” value [1] was 0 n (%) and the “Energy increased, number of occurrences” value [1] was 2 E. The “Energy increased, subjects with event” value [1] was 2 (4.3%) n (%), the “Epistaxis (nosebleed), subjects with event” value [1] was 0 n (%) and the “Euphoric mood, number of occurrences” value [1] was 29 E. For the same compound, the “Euphoric mood, subjects with event” value [1] was 29 (63.0%) n (%), the “Eye disorders, number of occurrences” value [1] was 3 E and the “Eye disorders, subjects with event” value [1] was 3 (6.5%) n (%). For the same compound, the “Eye irritation, number of occurrences” value [1] was 1 E, the “Eye irritation, subjects with event” value [1] was 1 (2.2%) n (%) and the “Eye pain, subjects with event” value [1] was 0 n (%). For the same compound, the “Fatigue, number of occurrences” value [1] was 3 E, the “Fatigue, subjects with event” value [1] was 3 (6.5%) n (%) and the “Feeling hot, number of occurrences” value [1] was 3 E. For the same compound, the “Feeling hot, subjects with event” value [1] was 3 (6.5%) n (%), the “Feeling of relaxation, subjects with event” value [1] was 0 n (%) and the “Flushing, number of occurrences” value [1] was 1 E. The “Flushing, subjects with event” value [1] was 1 (2.2%) n (%), the “Gastrointestinal disorders, number of occurrences” value [1] was 10 E and the “Gastrointestinal disorders, subjects with event” value [1] was 9 (19.6%) n (%). For the same compound, the “General disorders and administration site conditions, number of occurrences” value [1] was 13 E, the “General disorders and administration site conditions, subjects with event” value [1] was 12 (26.1%) n (%) and the “Haematoma, number of occurrences” value [1] was 1 E. For the same compound, the “Haematoma, subjects with event” value [1] was 1 (2.2%) n (%), the “Head discomfort, subjects with event” value [1] was 0 n (%) and the “Headache, number of occurrences” value [1] was 7 E. For the same compound, the “Headache, subjects with event” value [1] was 7 (15.2%) n (%), the “Hyperhidrosis, number of occurrences” value [1] was 3 E and the “Hyperhidrosis, subjects with event” value [1] was 3 (6.5%) n (%). The “Hypervigilance, number of occurrences” value [1] was 16 E, the “Hypervigilance, subjects with event” value [1] was 16 (34.8%) n (%) and the “Hypopnoea (shallow breathing), number of occurrences” value [1] was 1 E. For the same compound, the “Hypopnoea (shallow breathing), subjects with event” value [1] was 1 (2.2%) n (%), the “Infections and infestations, subjects with event” value [1] was 0 n (%) and the “Investigations, number of occurrences” value [1] was 1 E. For the same compound, the “Investigations, subjects with event” value [1] was 1 (2.2%) n (%), the “Irritability, subjects with event” value [1] was 0 n (%) and the “Lacrimation increased, subjects with event” value [1] was 0 n (%). The “Metabolism and nutrition disorders, number of occurrences” value [1] was 3 E, the “Metabolism and nutrition disorders, subjects with event” value [1] was 3 (6.5%) n (%) and the “Muscle tightness, number of occurrences” value [1] was 2 E. For the same compound, the “Muscle tightness, subjects with event” value [1] was 2 (4.3%) n (%), the “Muscle twitching, number of occurrences” value [1] was 1 E and the “Muscle twitching, subjects with event” value [1] was 1 (2.2%) n (%). For the same compound, the “Musculoskeletal and connective tissue disorders, number of occurrences” value [1] was 5 E, the “Musculoskeletal and connective tissue disorders, subjects with event” value [1] was 4 (8.7%) n (%) and the “Nasal congestion, number of occurrences” value [1] was 1 E. For the same compound, the “Nasal congestion, subjects with event” value [1] was 1 (2.2%) n (%), the “Nasal discomfort, number of occurrences” value [1] was 3 E and the “Nasal discomfort, subjects with event” value [1] was 3 (6.5%) n (%). The “Nasal dryness, subjects with event” value [1] was 0 n (%), the “Nausea, number of occurrences” value [1] was 1 E and the “Nausea, subjects with event” value [1] was 1 (2.2%) n (%). The “Neck pain, number of occurrences” value [1] was 1 E, the “Neck pain, subjects with event” value [1] was 1 (2.2%) n (%) and the “Nervous system disorders, number of occurrences” value [1] was 10 E. The “Nervous system disorders, subjects with event” value [1] was 9 (19.6%) n (%), the “Obsessive-compulsive disorder, number of occurrences” value [1] was 1 E and the “Obsessive-compulsive disorder, subjects with event” value [1] was 1 (2.2%) n (%). For the same compound, the “Palpitations, number of occurrences” value [1] was 11 E, the “Palpitations, subjects with event” value [1] was 11 (23.9%) n (%) and the “Peripheral swelling, number of occurrences” value [1] was 1 E. The “Peripheral swelling, subjects with event” value [1] was 1 (2.2%) n (%), the “Pharyngeal hypoaesthesia (numbness of throat), number of occurrences” value [1] was 1 E and the “Pharyngeal hypoaesthesia (numbness of throat), subjects with event” value [1] was 1 (2.2%) n (%). For the same compound, the “Pharyngitis, subjects with event” value [1] was 0 n (%), the “Phlebitis superficial, subjects with event” value [1] was 0 n (%) and the “Phonophobia (fear of loud noises), number of occurrences” value [1] was 1 E. The “Phonophobia (fear of loud noises), subjects with event” value [1] was 1 (2.2%) n (%), the “Photophobia, number of occurrences” value [1] was 1 E and the “Photophobia, subjects with event” value [1] was 1 (2.2%) n (%). For the same compound, the “Psychiatric disorders, number of occurrences” value [1] was 54 E, the “Psychiatric disorders, subjects with event” value [1] was 41 (89.1%) n (%) and the “Pyrexia, subjects with event” value [1] was 0 n (%). The “Reproductive system and breast disorders, number of occurrences” value [1] was 2 E, the “Reproductive system and breast disorders, subjects with event” value [1] was 2 (4.3%) n (%) and the “Respiratory, thoracic and mediastinal disorders, number of occurrences” value [1] was 12 E. The “Respiratory, thoracic and mediastinal disorders, subjects with event” value [1] was 10 (21.7%) n (%), the “Restlessness, number of occurrences” value [1] was 2 E and the “Restlessness, subjects with event” value [1] was 2 (4.3%) n (%). The “Rhinorrhoea (runny nose), subjects with event” value [1] was 0 n (%), the “Sinus tachycardia, number of occurrences” value [1] was 7 E and the “Sinus tachycardia, subjects with event” value [1] was 7 (15.2%) n (%). For the same compound, the “Skin and subcutaneous tissue disorders, number of occurrences” value [1] was 4 E, the “Skin and subcutaneous tissue disorders, subjects with event” value [1] was 4 (8.7%) n (%) and the “Skin erosion, number of occurrences” value [1] was 1 E. The “Skin erosion, subjects with event” value [1] was 1 (2.2%) n (%), the “Sneezing, subjects with event” value [1] was 0 n (%) and the “Somnolence, number of occurrences” value [1] was 2 E. For the same compound, the “Somnolence, subjects with event” value [1] was 2 (4.3%) n (%), the “Tachycardia, number of occurrences” value [1] was 9 E and the “Tachycardia, subjects with event” value [1] was 8 (17.4%) n (%). The “Testis discomfort, number of occurrences” value [1] was 1 E, the “Testis discomfort, subjects with event” value [1] was 1 (2.2%) n (%) and the “Throat irritation, number of occurrences” value [1] was 3 E. The “Throat irritation, subjects with event” value [1] was 3 (6.5%) n (%), the “Upper-airway cough syndrome, subjects with event” value [1] was 0 n (%) and the “Vascular disorders, number of occurrences” value [1] was 2 E. For the same compound, the “Vascular disorders, subjects with event” value [1] was 2 (4.3%) n (%), the “Ventricular extrasystoles, number of occurrences” value [1] was 2 E and the “Ventricular extrasystoles, subjects with event” value [1] was 2 (4.3%) n (%). For the same compound, the “Vessel puncture site bruise, number of occurrences” value [1] was 1 E, the “Vessel puncture site bruise, subjects with event” value [1] was 1 (2.2%) n (%) and the “Vessel puncture site pain, number of occurrences” value [1] was 1 E. The “Vessel puncture site pain, subjects with event” value [1] was 1 (2.2%) n (%), the “Visual impairment, number of occurrences” value [1] was 1 E and the “Visual impairment, subjects with event” value [1] was 1 (2.2%) n (%). For the same compound, the “Vomiting, subjects with event” value [1] was 0 n (%).
